Measurements from US20250281645A1, “Lentiviral Vector” (Ospedale San Raffaele S.r.l., priority 2022, published 2025).

Experiments:
Details in all cases: mouse, in vivo
C57 mice = tested on: C57 mice
Method: (§1) (a) Experimental design: 8 weeks old mice C57 or Ldlr^−/− (n=4-6 per each condition) are injected with Bortezomib and/or Marl and/or fasted for 24 hours, before receiving LV (dose 2.75×10^10 TU/Kg) i.v. Then, hFIX is monitored in treated mice longitudinally. (b, c) Mean with SEM of hFIX antigen measured in the plasma of LV treated mice over time (4 and 26 wk post LV timepoint). Two-way ANOVA with Dunnett's multiple comparisons test vs LV control, performed for each of the two strains used.
(§2) According to the groups, mice were either faster for 24 hours, injected with Marl 3 hours before LV and/or injected with Bortezomib 1-hour before LV. Circulating hFIX amounts were then monitored longitudinally (FIG. 11A).
Wild-type C57Bl/6 adults, Ldlr/adults, Alb-F8*R593C adults, Ldlr^−/− 2-week old mice and C57 BI/6 2-week old were used in these studies. Founder B6; 129S-7-Ldlrtm1 Her/J mice (referred to as Ldlr^−/−) were obtained from the Jackson Laboratories (stock #:002207). […] C57BL/6 mice were purchased from Jackson laboratories (stock #000664). […]
(§3) hFIX ELISA assay was used to assess hFIX concentration in mouse plasma samples (Affinity Biologicals, FIX-EIA), in accordance with the manufacturer's protocol. Absorbance of each sample was determined spectrophotometrically, using a Multiskan GO microplate reader (Thermo Fisher Scientific) and normalized to antigen standard curves.

Adult mice = tested on: Adult mice
Ldlr^−/− mice = tested on: Ldlr^−/− mice
Method: as §1, §2
Wild-type C57Bl/6 adults, Ldlr/adults, Alb-F8*R593C adults, Ldlr^−/− 2-week old mice and C57 BI/6 2-week old were used in these studies. Founder B6; 129S-7-Ldlrtm1 Her/J mice (referred to as Ldlr^−/−) were obtained from the Jackson Laboratories (stock #:002207). […] C57BL/6 mice were purchased from Jackson laboratories (stock #000664). […] LV was administered in adult mice, males and females (7-10-weeks of age), through either tail vein or retro-orbital plexus (250-500 μL/mouse). LV was administered in juvenile mice (2 weeks of age) through retro-orbital plexus (100-200 μL/mouse). Mice were bled from the retro-orbital plexus through capillary tubes. Blood was collected in 0.38% sodium citrate buffer, pH 7.4. […] For fasting experiments, mice were starved for 24-hours and then treated or not with LV. For experiments with Bortezomib (Velcade), the drug (1 mg/kg) was administered, once diluted in saline, i.v. 1 hour before LV administration. […]
as §3

Compound: CC(C)C[C@H](NC(=O)[C@H](Cc1ccccc1)NC(=O)c1cnccn1)B(O)O [Bortezomib]
- transgene output in combination with fasting, versus LV controls (C57 mice): 11-12 fold
- transgene output compared to LV only, single treatment (C57 mice; iv): enhanced transgene output
- VCN in KC (Adult mice): reduced VCN
- VCN in LSEC (Adult mice): increase
- VCN in hepatocytes (Adult mice): trend of increase
- VCN in pDC (Adult mice): reduced VCN
- hFIX circulating amounts versus controls (Adult mice; iv): higher than controls
- overall increase in transgene output, combination of fasting and Bortezomib (Ldlr^−/− mice): 4.5-6 fold
- transgene output when combined with fasting, compared to use as single treatments (Ldlr^−/− mice): milder increase in Ldlr^−/− than C57
- transgene output, single treatment (Ldlr^−/− mice): give an advantage
